Test results from US9682995B2, “Amino-substituted isothiazoles” (BAYER PHARMA AKTIENGESELLSCHAFT, priority 2013, dated 2017).

Experiments:
Assay in all cases: Kinase Profiling (KINOMEscan)
Assay type in all cases: binding
[1] = biological target: 456 kinases (of these 395 non-mutant kinases) (Homo sapiens, UniProt P53355); conditions: DAPK1; 10 μM
[2] = biological target: 456 kinases (of these 395 non-mutant kinases) (Homo sapiens, UniProt P49674); conditions: CSNK1E; 10 μM
[3] = biological target: 456 kinases (of these 395 non-mutant kinases) (Homo sapiens, UniProt P00533, DEL746-750); conditions: EGFR(E746-A750del); 10 μM
[4] = biological target: 456 kinases (of these 395 non-mutant kinases) (Homo sapiens, UniProt P11362); conditions: FGFR1; 10 μM
456 kinases (of these 395 non-mutant kinases) (Homo sapiens, UniProt P11362), sequence (P11362 22-822 limits assumed, change not shown): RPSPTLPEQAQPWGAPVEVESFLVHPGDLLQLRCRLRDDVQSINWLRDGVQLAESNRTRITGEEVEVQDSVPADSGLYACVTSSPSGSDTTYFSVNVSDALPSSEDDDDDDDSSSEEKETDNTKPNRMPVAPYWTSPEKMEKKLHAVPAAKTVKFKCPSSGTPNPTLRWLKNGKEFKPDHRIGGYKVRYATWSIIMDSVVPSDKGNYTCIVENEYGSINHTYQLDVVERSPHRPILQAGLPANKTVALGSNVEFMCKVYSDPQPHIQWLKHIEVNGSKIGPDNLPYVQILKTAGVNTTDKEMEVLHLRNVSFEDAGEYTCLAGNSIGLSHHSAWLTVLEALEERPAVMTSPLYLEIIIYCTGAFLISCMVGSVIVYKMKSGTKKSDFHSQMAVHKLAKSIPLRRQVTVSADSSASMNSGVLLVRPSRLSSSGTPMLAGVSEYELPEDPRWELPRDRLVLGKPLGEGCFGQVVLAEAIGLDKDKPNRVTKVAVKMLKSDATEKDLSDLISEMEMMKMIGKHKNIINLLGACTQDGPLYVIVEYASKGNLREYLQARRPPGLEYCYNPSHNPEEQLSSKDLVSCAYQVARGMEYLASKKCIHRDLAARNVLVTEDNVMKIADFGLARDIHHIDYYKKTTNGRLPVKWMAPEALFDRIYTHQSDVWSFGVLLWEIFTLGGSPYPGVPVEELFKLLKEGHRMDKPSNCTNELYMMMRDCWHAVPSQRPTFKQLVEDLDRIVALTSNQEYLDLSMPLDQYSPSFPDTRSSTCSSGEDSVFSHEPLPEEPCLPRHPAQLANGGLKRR

[5] = biological target: 456 kinases (of these 395 non-mutant kinases) (Homo sapiens, UniProt P07332); conditions: FES; 10 μM
[6] = biological target: 456 kinases (of these 395 non-mutant kinases) (Homo sapiens, UniProt Q9H1R3); conditions: MYLK2; 10 μM
[7] = biological target: 456 kinases (of these 395 non-mutant kinases) (Homo sapiens, UniProt P42336, H1047Y); conditions: PIK3CA(H1047Y); 10 μM
[8] = biological target: 456 kinases (of these 395 non-mutant kinases) (Homo sapiens, UniProt P00519, E255K); conditions: ABL1(E255K)-phosphorylated; 10 μM
[9] = biological target: 456 kinases (of these 395 non-mutant kinases) (Homo sapiens, UniProt Q6XUX3); conditions: RIPK5; 10 μM
[10] = biological target: 456 kinases (of these 395 non-mutant kinases) (Homo sapiens, UniProt Q9BVS4); conditions: RIOK2; 10 μM
[11] = biological target: 456 kinases (of these 395 non-mutant kinases) (Homo sapiens, UniProt Q07002); conditions: PCTK3; 10 μM
[12] = biological target: 456 kinases (of these 395 non-mutant kinases) (Homo sapiens, UniProt P07949, V804M); conditions: RET(V804M); 10 μM
[13] = biological target: 456 kinases (of these 395 non-mutant kinases) (Homo sapiens, UniProt Q16513); conditions: PKN2; 10 μM
[14] = biological target: 456 kinases (of these 395 non-mutant kinases) (Homo sapiens, UniProt O14757); conditions: CHEK1; 10 μM
[15] = biological target: 456 kinases (of these 395 non-mutant kinases) (Homo sapiens, UniProt P54760); conditions: EPHB4; 10 μM
456 kinases (of these 395 non-mutant kinases) (Homo sapiens, UniProt P54760), sequence (P54760 16-987 limits assumed, stated change not applied): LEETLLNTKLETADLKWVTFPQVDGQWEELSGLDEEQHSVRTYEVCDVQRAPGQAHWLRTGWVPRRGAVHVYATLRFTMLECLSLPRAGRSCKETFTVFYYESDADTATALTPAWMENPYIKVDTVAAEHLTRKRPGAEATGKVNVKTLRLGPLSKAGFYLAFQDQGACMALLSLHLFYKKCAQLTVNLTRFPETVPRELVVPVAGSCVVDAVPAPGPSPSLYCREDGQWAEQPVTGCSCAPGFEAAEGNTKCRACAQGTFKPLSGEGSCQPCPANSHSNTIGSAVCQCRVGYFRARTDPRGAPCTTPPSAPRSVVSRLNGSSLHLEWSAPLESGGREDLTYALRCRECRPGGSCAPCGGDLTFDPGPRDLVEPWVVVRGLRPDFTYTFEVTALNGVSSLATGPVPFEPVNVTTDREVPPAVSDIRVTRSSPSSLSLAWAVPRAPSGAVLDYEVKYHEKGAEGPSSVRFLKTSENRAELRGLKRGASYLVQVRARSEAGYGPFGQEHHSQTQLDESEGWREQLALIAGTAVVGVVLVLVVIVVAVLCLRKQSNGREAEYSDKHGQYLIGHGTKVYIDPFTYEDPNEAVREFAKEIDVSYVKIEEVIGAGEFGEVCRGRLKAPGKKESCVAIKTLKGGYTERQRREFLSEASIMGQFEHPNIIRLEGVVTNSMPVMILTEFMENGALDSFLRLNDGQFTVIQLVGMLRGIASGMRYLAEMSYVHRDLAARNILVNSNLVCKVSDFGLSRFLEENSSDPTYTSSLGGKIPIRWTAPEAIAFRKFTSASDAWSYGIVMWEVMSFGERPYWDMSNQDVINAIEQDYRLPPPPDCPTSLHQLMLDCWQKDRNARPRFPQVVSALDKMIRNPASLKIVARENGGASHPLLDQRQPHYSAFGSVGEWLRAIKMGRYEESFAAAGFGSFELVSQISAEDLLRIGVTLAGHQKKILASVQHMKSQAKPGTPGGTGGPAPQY

[16] = biological target: 456 kinases (of these 395 non-mutant kinases) (Homo sapiens, UniProt P00533, L858R/T790M); conditions: EGFR(L858R,T790M); 10 μM
[17] = biological target: 456 kinases (of these 395 non-mutant kinases) (Homo sapiens, UniProt P42336, M1043I); conditions: PIK3CA(M1043I); 10 μM
[18] = biological target: 456 kinases (of these 395 non-mutant kinases) (Homo sapiens, UniProt P36894); conditions: BMPR1A; 10 μM
456 kinases (of these 395 non-mutant kinases) (Homo sapiens, UniProt P36894), sequence (P36894 24-532 limits assumed, change not shown): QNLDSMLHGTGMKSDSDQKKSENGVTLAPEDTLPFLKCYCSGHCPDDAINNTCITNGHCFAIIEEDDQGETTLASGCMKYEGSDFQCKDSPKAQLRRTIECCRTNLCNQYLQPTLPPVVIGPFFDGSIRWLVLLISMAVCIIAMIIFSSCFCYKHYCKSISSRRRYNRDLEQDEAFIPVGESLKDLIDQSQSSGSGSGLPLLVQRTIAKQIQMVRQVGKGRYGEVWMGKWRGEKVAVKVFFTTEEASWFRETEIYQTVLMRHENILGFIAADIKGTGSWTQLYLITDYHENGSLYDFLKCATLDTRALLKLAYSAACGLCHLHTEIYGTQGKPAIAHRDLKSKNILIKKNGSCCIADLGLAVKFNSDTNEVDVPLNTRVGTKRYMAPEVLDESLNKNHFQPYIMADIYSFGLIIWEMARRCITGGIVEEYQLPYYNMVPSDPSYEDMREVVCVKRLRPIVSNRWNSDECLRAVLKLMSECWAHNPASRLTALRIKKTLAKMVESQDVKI

[19] = biological target: 456 kinases (of these 395 non-mutant kinases) (Homo sapiens, UniProt P54753); conditions: EPHB3; 10 μM
456 kinases (of these 395 non-mutant kinases) (Homo sapiens, UniProt P54753), sequence (P54753 34-998 limits assumed, change not shown): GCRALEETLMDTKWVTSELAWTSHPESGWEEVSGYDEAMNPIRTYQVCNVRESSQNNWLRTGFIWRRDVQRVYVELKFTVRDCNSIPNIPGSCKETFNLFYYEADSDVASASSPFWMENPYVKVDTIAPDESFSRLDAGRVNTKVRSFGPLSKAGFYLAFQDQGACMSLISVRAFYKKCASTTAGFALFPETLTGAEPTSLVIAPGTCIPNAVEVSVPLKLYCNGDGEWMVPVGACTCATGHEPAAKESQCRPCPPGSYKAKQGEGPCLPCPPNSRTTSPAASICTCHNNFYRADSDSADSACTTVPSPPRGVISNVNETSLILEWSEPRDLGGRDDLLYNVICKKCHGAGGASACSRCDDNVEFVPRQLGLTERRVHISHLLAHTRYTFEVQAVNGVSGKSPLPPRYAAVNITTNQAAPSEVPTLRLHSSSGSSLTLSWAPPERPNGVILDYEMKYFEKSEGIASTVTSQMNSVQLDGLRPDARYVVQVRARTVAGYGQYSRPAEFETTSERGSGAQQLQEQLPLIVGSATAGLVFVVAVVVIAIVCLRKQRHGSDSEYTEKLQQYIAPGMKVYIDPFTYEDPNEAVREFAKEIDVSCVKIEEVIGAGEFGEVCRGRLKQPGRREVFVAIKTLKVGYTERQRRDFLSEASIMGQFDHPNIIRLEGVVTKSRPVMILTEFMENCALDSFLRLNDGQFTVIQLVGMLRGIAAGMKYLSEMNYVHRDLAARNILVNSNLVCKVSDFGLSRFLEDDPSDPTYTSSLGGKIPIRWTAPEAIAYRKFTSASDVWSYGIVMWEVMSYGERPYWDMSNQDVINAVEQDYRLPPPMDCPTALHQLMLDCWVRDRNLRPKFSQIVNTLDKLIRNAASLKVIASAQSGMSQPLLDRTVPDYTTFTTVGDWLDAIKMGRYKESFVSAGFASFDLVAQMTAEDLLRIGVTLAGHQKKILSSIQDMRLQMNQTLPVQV

[20] = biological target: 456 kinases (of these 395 non-mutant kinases) (Homo sapiens, UniProt P16234); conditions: PDGFRA; 10 μM
[21] = biological target: 456 kinases (of these 395 non-mutant kinases) (Homo sapiens, UniProt Q12851); conditions: MAP4K2; 10 μM
[22] = biological target: 456 kinases (of these 395 non-mutant kinases) (Homo sapiens, UniProt P52564); conditions: MEK6; 10 μM
[23] = biological target: 456 kinases (of these 395 non-mutant kinases) (Homo sapiens, UniProt O14920); conditions: IKK-beta; 10 μM
[24] = biological target: 456 kinases (of these 395 non-mutant kinases) (Homo sapiens, UniProt Q13555); conditions: CAMK2G; 10 μM
[25] = biological target: 456 kinases (of these 395 non-mutant kinases) (Homo sapiens, UniProt Q8NG66); conditions: NEK11; 10 μM
[26] = biological target: 456 kinases (of these 395 non-mutant kinases) (Homo sapiens, UniProt P49137); conditions: MAPKAPK2; 10 μM
[27] = biological target: 456 kinases (of these 395 non-mutant kinases) (Homo sapiens, UniProt Q9UEW8); conditions: STK39; 10 μM
[28] = biological target: 456 kinases (of these 395 non-mutant kinases) (Homo sapiens, UniProt Q96L34); conditions: MARK4; 10 μM
[29] = biological target: 456 kinases (of these 395 non-mutant kinases) (Homo sapiens, UniProt P00519, H396P); conditions: 10 μM
[30] = biological target: 456 kinases (of these 395 non-mutant kinases) (Homo sapiens, UniProt Q6ZN16); conditions: MAP3K15; 10 μM
[31] = biological target: 456 kinases (of these 395 non-mutant kinases) (Homo sapiens, UniProt P35968); conditions: VEGFR2; 10 μM
456 kinases (of these 395 non-mutant kinases) (Homo sapiens, UniProt P35968), sequence (P35968 20-1356 limits assumed, change not shown): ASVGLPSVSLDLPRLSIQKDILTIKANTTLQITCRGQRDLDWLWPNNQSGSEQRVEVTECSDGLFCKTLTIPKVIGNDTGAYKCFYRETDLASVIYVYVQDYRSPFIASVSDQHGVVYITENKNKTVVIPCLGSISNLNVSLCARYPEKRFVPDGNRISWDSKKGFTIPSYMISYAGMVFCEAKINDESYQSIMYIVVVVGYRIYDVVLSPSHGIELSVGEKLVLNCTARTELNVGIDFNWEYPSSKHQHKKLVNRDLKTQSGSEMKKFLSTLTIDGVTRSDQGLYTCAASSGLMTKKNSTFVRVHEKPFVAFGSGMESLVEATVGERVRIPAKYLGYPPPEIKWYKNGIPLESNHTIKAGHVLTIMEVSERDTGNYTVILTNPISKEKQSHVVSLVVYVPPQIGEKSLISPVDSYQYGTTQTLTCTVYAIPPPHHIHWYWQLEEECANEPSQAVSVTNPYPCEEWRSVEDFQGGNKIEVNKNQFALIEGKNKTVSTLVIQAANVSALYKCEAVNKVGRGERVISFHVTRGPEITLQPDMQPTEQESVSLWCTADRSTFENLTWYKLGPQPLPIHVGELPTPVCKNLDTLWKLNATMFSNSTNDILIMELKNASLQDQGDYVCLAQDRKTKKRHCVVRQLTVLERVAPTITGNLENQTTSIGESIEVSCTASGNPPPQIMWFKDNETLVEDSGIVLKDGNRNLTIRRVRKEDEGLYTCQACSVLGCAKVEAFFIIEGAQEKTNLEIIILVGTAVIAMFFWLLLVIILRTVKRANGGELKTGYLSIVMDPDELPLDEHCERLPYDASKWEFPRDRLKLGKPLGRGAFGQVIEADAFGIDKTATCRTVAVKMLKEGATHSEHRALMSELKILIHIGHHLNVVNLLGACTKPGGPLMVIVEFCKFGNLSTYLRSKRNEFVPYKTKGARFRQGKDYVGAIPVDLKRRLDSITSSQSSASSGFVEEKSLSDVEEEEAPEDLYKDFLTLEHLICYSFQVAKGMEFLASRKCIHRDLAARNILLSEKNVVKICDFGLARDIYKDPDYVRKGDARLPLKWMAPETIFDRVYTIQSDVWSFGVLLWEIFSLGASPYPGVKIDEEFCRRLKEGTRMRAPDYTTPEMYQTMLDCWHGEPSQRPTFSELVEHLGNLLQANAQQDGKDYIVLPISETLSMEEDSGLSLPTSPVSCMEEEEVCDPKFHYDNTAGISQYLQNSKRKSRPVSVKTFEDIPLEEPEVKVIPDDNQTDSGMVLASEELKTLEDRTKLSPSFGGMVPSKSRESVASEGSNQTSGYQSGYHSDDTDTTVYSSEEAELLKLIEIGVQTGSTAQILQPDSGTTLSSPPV

With CCc1ccccc1NC(=O)c1c(C)nsc1Nc1cnc2cc(F)ccc2n1 [Example 20, N-(2-Ethylphenyl)-5-[(6-fluoroquinoxalin-2-yl)amino]-3-methyl-1,2-thiazole-4-carboxamide] the “% Ctrl @ 10 μM” value [1] was 88 % Ctrl, the “% Ctrl @ 10 μM” value [2] was 74 % Ctrl and the “% Ctrl @ 10 μM” value [3] was 100 % Ctrl. For the same compound, the “% Ctrl @ 10 μM” value [4] was 94 % Ctrl, the “% Ctrl @ 10 μM” value [5] was 94 % Ctrl and the “% Ctrl @ 10 μM” value [6] was 100 % Ctrl. For the same compound, the “% Ctrl @ 10 μM” value [7] was 100 % Ctrl, the “% Ctrl @ 10 μM” value [8] was 100 % Ctrl and the “% Ctrl @ 10 μM” value [9] was 100 % Ctrl. For the same compound, the “% Ctrl @ 10 μM” value [10] was 77 % Ctrl, the “% Ctrl @ 10 μM” value [11] was 82 % Ctrl and the “% Ctrl @ 10 μM” value [12] was 100 % Ctrl. The “% Ctrl @ 10 μM” value [13] was 100 % Ctrl, the “% Ctrl @ 10 μM” value [14] was 73 % Ctrl and the “% Ctrl @ 10 μM” value [15] was 96 % Ctrl. For the same compound, the “% Ctrl @ 10 μM” value [16] was 96 % Ctrl, the “% Ctrl @ 10 μM” value [17] was 76 % Ctrl and the “% Ctrl @ 10 μM” value [18] was 100 % Ctrl. For the same compound, the “% Ctrl @ 10 μM” value [19] was 82 % Ctrl, the “% Ctrl @ 10 μM” value [20] was 100 % Ctrl and the “% Ctrl @ 10 μM” value [21] was 99 % Ctrl. For the same compound, the “% Ctrl @ 10 μM” value [22] was 95 % Ctrl, the “% Ctrl @ 10 μM” value [23] was 90 % Ctrl and the “% Ctrl @ 10 μM” value [24] was 75 % Ctrl. The “% Ctrl @ 10 μM” value [25] was 92 % Ctrl, the “% Ctrl @ 10 μM” value [26] was 89 % Ctrl and the “% Ctrl @ 10 μM” value [27] was 100 % Ctrl. The “% Ctrl @ 10 μM” value [28] was 100 % Ctrl, the “% Ctrl @ 10 μM” value ([29]; ABL1(H396P)-nonphosphorylated) was 100 % Ctrl and the “% Ctrl @ 10 μM” value ([29]; ABL1(H396P)-phosphorylated) was 92 % Ctrl. The “% Ctrl @ 10 μM” value [30] was 100 % Ctrl and the “% Ctrl @ 10 μM” value [31] was 100 % Ctrl.
